In ChEMBL document CHEMBL1144752, “Synthesis and antioxidant properties of novel N-methyl-1,3,4-thiadiazol-2-amine and 4-methyl-2H-1,2,4-triazole-3(4H)-thione derivatives of benzimidazole class” (Bioorg Med Chem, 2008):
Activity calls are given as the source filed them. No cut-off for these calls is given here.

How the values were obtained:
Liver microsomes [1] = assay: Antioxidant activity in albino Wistar rat liver microsomes assessed as inhibition of NADPH-dependent lipid peroxidation at 1000 uM; type: functional; details: Microsome
[2] = system: Radical scavenging activity; assay: Antioxidant activity assessed as DPPH free radical scavenging activity after 30 mins; type: functional
[3] = Antioxidant activity assessed as inhibition of superoxide radical anion formation at 0.1 mM; type: functional
Liver microsomes [4] = assay: Antioxidant activity in rat liver microsomes assessed as inhibition of ethoxyresorufin O-deethylase activity at 1000 uM; type: functional; details: Microsome
Liver microsomes [5] = assay: Antioxidant activity in rat liver microsomes assessed as inhibition of ethoxyresorufin O-deethylase activity; type: functional, Microsome

Row | IC50 [2] [µM] | IC50 (Liver microsomes [5]) [µM] | SMILES | Activity (Liver microsomes [1]) [nmol/mg/min] | inhibition [3] [%] | Activity (Liver microsomes [4]) [pmol/mg/min] | inhibition (Liver microsomes [1]) [%] | Activity [3] | inhibition (Liver microsomes [4]) [%]
1 | 54 |  | Cc1cc(C(C)(C)C)c(O)c(C(C)(C)C)c1 [BUTYLATED HYDROXYTOLUENE] | 5.68 |  |  |  |  | 
2 | 140 |  | COc1ccc(-c2nc3ccccc3n2Cc2n[nH]c(=S)n2C)cc1 | 23.1 | 5 | 15.8 |  |  | 
3 | > 1000 |  | CNc1nnc(Cn2c(-c3ccc(OC)cc3)nc3ccccc32)s1 | 14.4 | 5 | 34.3 | 11 |  | 
4 | 30 |  | CNC(=S)NNC(=O)Cn1c(-c2ccc(Cl)cc2)nc2ccccc21 | 13.1 | 38 | 28.3 | 20 |  | 
5 | 605 |  | Cn1c(Cn2c(-c3ccc(OCc4ccccc4)cc3)nc3ccccc32)n[nH]c1=S | 69.6 | 5 | 18 |  |  | 
6 | 26 |  | CNC(=S)NNC(=O)Cn1c(-c2ccccc2)nc2ccccc21 | 19.2 | 22 | 51 |  |  | 
7 | 462 | 450 | Cn1c(Cn2c(-c3ccc(Cl)cc3)nc3ccccc32)n[nH]c1=S | 26.6 |  | 7.89 |  | inactive | 81
8 |  |  | CNc1nnc(Cn2c(-c3ccc(Cl)cc3)nc3ccccc32)s1 | 16.1 | 21 | 2.46 |  |  | 
9 |  | 520 | Cn1c(=O)c2c(ncn2C)n(C)c1=O [CAFFEINE] |  |  | 8.31 |  |  | 80
10 | 12 |  | COc1ccc(NC(=S)NNC(=O)Cn2c(-c3ccncc3)nc3ccccc32)cc1 |  |  |  |  |  | 
11 | 74 |  | CNC(=S)NNC(=O)Cn1c(-c2ccc(OCc3ccccc3)cc2)nc2ccccc21 | 96.6 | 5 | 28.6 |  |  | 
12 | 13 |  | O=C(Cn1c(-c2ccncc2)nc2ccccc21)NNC(=S)Nc1ccccc1 |  |  |  |  |  | 
13 | 43 |  | CNC(=S)NNC(=O)Cn1c(-c2ccc(OC)cc2)nc2ccccc21 | 16.1 |  | 34.5 |  | inactive | 
14 | > 1000 |  | CNc1nnc(Cn2c(-c3ccc(O)cc3)nc3ccccc32)s1 | 129 | 5 | 36.1 |  |  | 
15 | > 1000 |  | CNc1nnc(Cn2c(-c3ccc(OC)c(OC)c3)nc3cc(Cl)c(Cl)cc32)s1 | 11.8 | 31 | 12.2 | 28 |  | 66
16 | 55 | 840 | CNC(=S)NNC(=O)Cn1c(-c2ccc(OC)c(OC)c2)nc2cc(Cl)c(Cl)cc21 | 14.8 | 26 | 12.3 |  |  | 70
17 | 271 |  | COc1ccc(-c2nc3cc(Cl)c(Cl)cc3n2Cc2n[nH]c(=S)n2C)cc1OC | 27.5 |  | 18.3 |  | inactive | 
